Legend:
USP-2 and UCH-L3 [1] = assay: Inhibition of the deubiquitinases (titration of inhibitor, fluorescence polarization assay); assay type: biochemical, human; settings: in presence of 5 mM DTT
Protocol: Measurements of polarization and lifetime are performed on the research reader of Evotec OAI (see below). To perform the test, the de-ubiquitinating enzyme is first put into the well and the addition of the substrate triggered the start of the reaction. The enzymatic reaction is stopped by shifting the pH from 7.5 to 5 with the addition of Stop buffer (end concentration of 30 mM malonic acid pH 4.5—see TABLE 1). With this procedure the read-out could be kept stable for several hours.
Cysteine proteases, such as USP-2 and UCH-L3, are sensitive to covalent modification of the active site cystein. […] Ubiquitin aldehyde is a known inhibitor for both enzymes, USP-2 and UCH-L3. […] Using this molecule we analyzed whether addition of DTT can be utilized to mask the activity of covalent active site inhibitors during the screen. When titrating Ubiquitin aldehyde in presence of 5 mM DTT an IC50 value of 100 nM was found.

USP-2 and UCH-L3 [2] = settings: in absence of reducing agent; cited from earlier work
USP-2 and UCH-L3 [3] = assay: Downscaling: compatibility of the deubiquitinase assay with HBC and DMSO; assay type: biochemical, human
Protocol: One important factor which has to be tested during downscaling of the assay to the […] (2080 well nanoplates) is the assay's compatibility with hydroxy beta cyclodextrin (HBC) and DMSO. Nanocarriers are coated with HBC in order facilitate re-solubilization of dried test compounds (‘dry screening’) and to reduce adsorption of assay components to the carrier. If HBC interferes with the assay, pre-coated plates can not be used and ‘wet screening’, utilizing compounds dissolved in DMSO, has to be performed. […] Even DMSO concentrations of up to 5% are found to be compatible with the screen. […] These findings support a ‘wet screening’ format for these target family.

In the case of Ubiquitin aldehyde, the IC50 (USP-2 and UCH-L3 [1]) is given as 100 nM and the Potency (USP-2 and UCH-L3 [2]) is given as “pM activity range”.
With hydroxy beta cyclodextrin [HBC] the “Effect on enzymatic activity” value (USP-2 and UCH-L3 [3]; HBC added to the assay) was “a reduction of the enzymatic activity was observed”.
In the case of `C[S+](C)[O-]` [DMSO], the “Concentration compatible with the screen” value (USP-2 and UCH-L3 [3]) is reported as “up to 5%” and the “Interference with the reaction” value (USP-2 and UCH-L3 [3]; increasing concentrations added to the assay) is reported as “only a minimal interference”.
